In patent publication US9199997B2, “Purinone derivative hydrochloride” (ONO PHARMACEUTICAL CO., LTD., priority 2011, dated 2015):
≈ marks a conversion by molar mass, not a printed value.

Key:
[1] = Blood kinetics in dogs; format: in vivo; settings: male, beagle, dog, plasma; solubilized solution (WellSolve), oral gavage 1 mg/kg vs intravenous 1 mg/kg, fasted dogs; read-out: bioavailability (BA)
Description: The kinetic profiles of compound A and the salt thereof (the compound prepared in Example 9) in blood were evaluated in male beagle dogs under fasting conditions. […] For the intravenous and oral solution administrations, a solubilized solution of Compound A dissolved in WellSolve (Celeste Inc.) heated to 60° C. was used. Using the solubilized solutions, doses of 1 mg/1 mL/kg were rapidly administered intravenously with a syringe via a forelimb cephalic vein, and doses of 1 mg/5 mL/kg were administered by gavage using a catheter. […] The concentration of Compound A in the plasma was measured by LC/MS/MS (UPLC/Xevo, Waters). The area under the curve (AUC, ng·h/mL), maximum concentration (Cmax, μg/mL) and clearance (CL, mL/hr/kg) were calculated from the plasma concentration. The bioavailability (BA) of Compound A was calculated from the AUC of the oral dose and the AUC of the intravenous dose.
Moreover, for the oral suspension administration a liquid was prepared by finely pulverizing Compound A and suspending the particles in an aqueous solution of 0.5% methylcellulose, and then administering doses of 3 and 10 mg/kg in the same manner as the forced oral administration by gavage described above. […] The BA values for each administration method and at each concentration were calculated as relative BA by assigning the BA of Compound A in the solubilized solution a value of 100%.

[2] = Measurement of solubility (HPLC); format: physicochemical; settings: thermodynamic from solid; for solubility at 30 min: after 30 min; for solubility at 24 h: after 24 h
Description: <HPLC Measurement Conditions>
Device: HPLC 1100series, Agilent
Column: YMC-Pack ODS-AM AM-302 (4.6 mm ID×150 mm long)
Column temperature: 25° C.
Mobile phase: 20 mM potassium phosphate monobasic (pH 3.0)/acetonitrile (60:40, isocratic)
Sample rack temperature: 25° C.
Sample injection volume: 10 μL

[3] = FaSSIF (artificial intestinal fluid), FaSSIF (pH 6.5)
[4] = FeSSIF (artificial intestinal fluid), FeSSIF (pH 6.5)
[5] = Japanese Pharmacopoeia dissolution test I liquid, simulated gastric fluid, JP dissolution test I liquid (pH 1.2)
[6] = Japanese Pharmacopoeia dissolution test II liquid, aqueous buffer, JP dissolution test II liquid (pH 6.8)
[7] = diluted McIlvaine buffer, aqueous buffer, Dilute McIlvaine buffer (pH 4.0)
[8] = diluted McIlvaine buffer, aqueous buffer, Dilute McIlvaine buffer (pH 7.4)

bioavailability [1] [%]	solubility at 30 min [2, 3] [mg/mL]	solubility at 24 h [2, 3] [mg/mL]	solubility at 30 min [2, 4] [mg/mL]	solubility at 24 h [2, 4] [mg/mL]	solubility at 30 min [2, 5] [mg/mL]	solubility at 24 h [2, 5] [mg/mL]	solubility at 30 min [2, 6] [mg/mL]	solubility at 24 h [2, 6] [mg/mL]	solubility at 30 min [2, 7] [mg/mL]	solubility at 24 h [2, 7] [mg/mL]	solubility at 30 min [2, 8] [mg/mL]	solubility at 24 h [2, 8] [mg/mL]	solubility at 30 min ([2]; Purified water) [mg/mL]	solubility at 24 h ([2]; Purified water) [mg/mL]	SMILES
115	0.035 (≈ 77 µM)	0.036 (≈ 79.2 µM)	0.067 (≈ 147 µM)	0.084 (≈ 185 µM)	0.55 (≈ 1210 µM)	0.717 (≈ 1580 µM)	0.031 (≈ 68.2 µM)	0.032 (≈ 70.4 µM)	0.03 (≈ 66 µM)	0.034 (≈ 74.8 µM)	0.029 (≈ 63.8 µM)	0.029 (≈ 63.8 µM)	0.032 (≈ 70.4 µM)	0.034 (≈ 74.8 µM)	CC#CC(=O)N1CC[C@@H](n2c(=O)n(-c3ccc(Oc4ccccc4)cc3)c3c(N)ncnc32)C1 [Compound A, 6-amino-9-[(3R)-1-(2-butynoyl)-3-pyrrolidinyl]-7-(4-phenoxyphenyl)-7,9-dihydro-8H-purin-8-one]
–	0.145	0.118	0.356	0.301	1.22	1.21	0.112	0.111	0.125	0.117	0.103	0.106	0.13	0.144	CC#CC(=O)N1CC[C@@H](n2c(=O)n(-c3ccc(Oc4ccccc4)cc3)c3c(N)ncnc32)C1.Cl [Example 9, 6-amino-9-[(3R)-1-(2-butynoyl)-3-pyrrolidinyl]-7-(4-phenoxyphenyl)-7,9-dihydro-8H-purin-8-one hydrochloride]
